The values below come from patent US6602896B1, “p38MAPK inhibitor and uses thereof” (The Board of Trustees of the University of Arkansas, priority 1999, dated 2003).

Test [1] has as its system LDL receptor expression. As to the kind of experiment: Northern blotting of LDL receptor mRNA in HepG2 cells. The conditions noted are these: HepG2 cells; for effect on SB202190-induced LDL receptor expression: inhibitor added 30 min before SB202190 (2.5 μM, 4 h); for induction of LDL receptor expression (Northern blotting): inhibitor alone, 0.5% FBS. The class given is cell-based, human. The procedure:
5×10^5 cells were plated on day 0. On day 2, cells were refed with fresh medium. On day. 4, cells were either left untreated (0) or treated for the indicated times with SB202190 (2.5 μM) in medium containing 0.5% FBS. Total RNA was isolated and subjected to Northern blotting to determine amounts of LDL receptor, squalene synthase (SS) genes, and actin mRNAs. Autoradiographs were quantitated densitometrically. LDL receptor mRNA levels were normalized to actin mRNA levels. In the bottom panel, results are expressed as the fold induction by SB 202190 as compared with uninduced cells (set at 1). Values obtained are the averages of three separate experiments, with the standard deviations shown.
HepG2 cells were grown as described in FIG. 1. On day 4, medium was changed to either 10% LPDS alone or 10% LPDS supplemented with 25-hydroxycholesterol (2 μg/ml) and cholesterol (10 μg/ml), and after 2 hours, cells were treated with indicated concentrations of SB202190 for an additional 4 hours. Levels of LDL receptor and SS mRNAs were determined by Northern analysis and densitometry as described previously. RNA levels were normalized by comparison with levels of actin. Values obtained from cells cultured in the absence of sterols and SB202190 were set at 1. Values shown are the average of two different experiments.
Total RNA was subjected to Northern blot analysis, and the filter was hybridized with a ^32P-labeled LDL receptor probe. Values shown are the averages of two different experiments. […] Values obtained from the control cells grown in the absence of SB202190 or PD98059 were arbitrarily set at 1.
HepG2 cells were grown as described in FIG. 1. On day 4, cells cultured for 1 h in 0.5% FBS containing different amounts of cycloheximide (1 μg/ml, 2 μg/ml, and 5 μg/ml) were then incubated with SB202190 (2.5 μM) for an additional 4 h. LDL receptor and actin mRNA levels were analyzed by Northern blotting of total RNA. Values obtained from cells with no additions were arbitrarily set at 1. […] Results shown are representative of one experiment.
In FIG. 8A, HepG2 cells were pretreated for 30 minutes with the indicated concentration of the above inhibitors and then treated with […] SB202190 for an additional 4 hours. Total RNA was subjected to Northern blotting for measurement of LDL receptor mRNA levels.
(§1) Human hepatoma cell line HepG2 and its derivative HepG2-ΔRaf-1:ER cell line that stably expresses the ΔRaf-1:ER chimera were maintained as monolayer cultures in a humidified 5% CO2 atmosphere at 37° C. in Eagle's minimum essential medium (EMEM) (Bio Whittaker, Md.) supplemented with 10% fetal bovine serum (FBS) (Life Technologies Inc.), 2 mM L-glutamine, 20 units/ml penicillin and 20 μg/ml streptomycin sulphate.
Total RNA was isolated using TRIzol, and Northern blotting was done essentially as described earlier (43, 44). Briefly, 20 μg total cellular RNA was fractionated on 1% formaldehyde agarose gel and transferred to Zeta Probe membrane by capillary blotting. RNA blots were hybridized with LDL receptor and squalene synthase specific single-stranded M13 probes labeled with [α-^32P ]dCTP. Hybridized filters were washed and exposed to Kodak X-ray film. The relative intensities of specific bands were determined densitometrically within the linear range of the film on a model 300A laser densitometer (Molecular Dyanamics, Calif.) with Image Quant software. LDL receptor mRNA was normalized to squalene synthase (SS) (included in this study) or to α-actin (data not shown) mRNA level, and data for each point were plotted as the percentage of LDL receptor mRNA as compared to controls. […]

The test system of test [2] is p42/44^MAPK. As to the kind of experiment: p42/44MAPK activation in HepG2-ΔRaf-1:ER cells. The conditions noted are these: 1 μM ICI 182,780. The class given is cell-based, human. The procedure: (§2) Cells were either left untreated or stimulated with 1 μM ICI 182,780 for 1.5 h, and then treated with either anisomycin (50 ng/ml) or IL-1β(5 ng/ml) for 30 min. Cells were then lysed in SDS sample buffer, and equal amounts of whole cell lysates were separated by SDS-PAGE in 10% gels. Activated MAPKs levels were analyzed by blotting using anti-phospho-p42/44^MAPK, and anti-phospho-p38^MAPK. Protein levels were analyzed by using phosphorylation-independent anti-p42/44^MAPK following electrotransfer of total proteins onto nitrocellulose. Similar results were obtained in three separate experiments. […]
(§3) Proteins were fractionated by SDS-PAGE with an 10% acrylamide separation gel, and the separated proteins were transferred to nitrocellulose, and processed as described previously (43, 44). […] After further washing in Tris/NaCl/Tween-20, membranes were incubated for 1 h with horseradish peroxidase-linked anti-IgG secondary antibody (Bio-Rad, diluted 1:5000), and immunoreactive proteins were detected by ECL as described by the supplier. Quantitative analyses of protein levels were performed by densitometric scanning of the autoradiograms, and are representative of 3 or more independent experiments.
(§4) Whether inhibition or activation of p42/44^MAPK regulates p38^MAPK activation by stress-inducers was determined next. […]

Test [3] has as its system p38^MAPK. Briefly: p38MAPK activation by stress-inducers in HepG2-ΔRaf-1:ER cells. The conditions noted are these: 1 μM ICI 182,780 1.5 h, then anisomycin (50 ng/ml) or IL-1β (5 ng/ml) 30 min. The class given is cell-based, human. Here is the method:
as §2, §3, §4

Test [4] concerns p42/44^MAPK. Briefly: Immunoblot of phospho-p42/44MAPK in HepG2 cells. The class given is cell-based, human. The settings on record: inhibitor added 30 min before SB202190 (2.5 μM, 4 h). Here is the method: (§5) 2×10^5 cells were grown and treated as described in FIG. 1. After the indicated times, equal amounts of cell lysates were blotted with anti-phospho-p42/44^MAPK antibody, phosphorylation-independent p42/44^MAPK antibody, anti-phospho p46/54^JNK antibody, anti-phospho-MEK-1/2, or phosphorylation-independent MKP-1.
HepG2 cells were cultured in the absence or presence of 1 μM staurosporine or 5 μM PD98059 for 30 min. SB202190 (2.5 μM) was then added to the cells for 4 h, cell lysate was subjected to immunoblotting to measure the phosphorylation levels of p42/44^MAPK and MEK-1/2.
as §1
Proteins were fractionated by SDS-PAGE with an 10% acrylamide separation gel, and the separated proteins were transferred to nitrocellulose, and processed as described previously (43, 44). Briefly, membranes were incubated in 20 mM Tris-HCl, pH 7.6, 137 mM NaCl, 0.2% v/v Tween-20 (Tris/NaCl/Tween-20) with 5% w/v non-fat dried milk for 1 h, washed in Tris/NaCl/Tween-20 (3×5 min), and incubated for 1 h with primary antibody in Tris/NaCl/Tween-20 containing 1% milk at room temperature for non phospho-specific antibodies and overnight at 4° C. for phospho-specific antibodies. The following dilutions were used for individual antibodies against different proteins: p42/44^MAPK (1:1600); phosphop-42/44^MAPK (1:1000); phosphop-46/54^JNK (1:1000); phospho-p38^MAPK (1:1600); phospho-MEK-1/2 (1:1000); MKP-1 (1:1500). After further washing in Tris/NaCl/Tween-20, membranes were incubated for 1 h with horseradish peroxidase-linked anti-IgG secondary antibody (Bio-Rad, diluted 1:5000), and immunoreactive proteins were detected by ECL as described by the supplier. Quantitative analyses of protein levels were performed by densitometric scanning of the autoradiograms, and are representative of 3 or more independent experiments.
HepG2 cells were incubated with SB202190, and the activity of p42/44^MAPK and p46/54^JNK was determined by immunoblot analysis with antibodies that recognized the activated phosphorylated forms of these kinases in cell extracts obtained at different times.

Test [5] has as its system LDL receptor expression. Briefly: Northern blotting of LDL receptor mRNA in HeLa cells. The class given is cell-based. The conditions noted are these: PD98059 (5 μM) added 30 min before SB202190 (2.5 μM) 4 h. Here is the method:
PD98059 was added 30 min prior to addition of SB202190. After the indicated times, total RNA was isolated and subjected to Northern blotting. […] Total RNA was isolated using TRIzol, and Northern blotting was done essentially as described earlier (43, 44). Briefly, 20 μg total cellular RNA was fractionated on 1% formaldehyde agarose gel and transferred to Zeta Probe membrane by capillary blotting. RNA blots were hybridized with LDL receptor and squalene synthase specific single-stranded M13 probes labeled with [α-^32P ]dCTP. Hybridized filters were washed and exposed to Kodak X-ray film. The relative intensities of specific bands were determined densitometrically within the linear range of the film on a model 300A laser densitometer (Molecular […], Calif.) with Image Quant software. LDL receptor mRNA was normalized to squalene synthase (SS) (included in this study) or to α-actin (data not shown) mRNA level, and data for each point were plotted as the percentage of LDL receptor mRNA as compared to controls.

The next test concerns other MAPKs. Briefly: Activity of other MAPKs on inhibition of p42/44MAPK. The class given is cell-based. The settings on record: inhibition of p42/44MAPK with PD98059; data not shown.
The test system of test [6] is p38^MAPK. The settings on record: concentrations that completely blocked p42/44MAPK activation by MEK-1/2; cited from earlier work.
For test [7], the system named is p38^MAPK α- and β-isoforms. The settings on record: cited from earlier work.
Another test concerns MEK-1/2. As to the kind of experiment: Immunoblot of phospho-MEK-1/2 in HepG2 cells. The class given is cell-based, human. The settings on record: 1 μM staurosporine 30 min, then SB202190 (2.5 μM) 4 h. Here is the method:
as §5
HepG2 cells were cultured in the absence or presence of 1 μM staurosporine or 5 μM PD98059 for 30 min. SB202190 (2.5 μM) was then added to the cells for 4 h, cell lysate was subjected to immunoblotting to measure the phosphorylation levels of p42/44^MAPK and MEK-1/2. […]
as §3

Turning to `CN(C)CCCn1cc(C2=C(c3c[nH]c4ccccc34)C(=O)NC2=O)c2ccccc21` [Bis I], in the test on LDL receptor expression [1], the “effect on SB202190-induced LDL receptor expression” value is recorded as “has no effect”.

Regarding `Cn1c2ccccc2c2c3c(c4c5ccccc5n(CCC#N)c4c21)CNC3=O` [Go6976], the “effect on SB202190-induced LDL receptor expression” value in the test on LDL receptor expression [1] is listed as “has no effect”.

In the case of `C[C@]12CC[C@@H]3c4ccc(O)cc4C[C@@H](CCCCCCCCC[S+]([O-])CCCC(F)(F)C(F)(F)F)[C@H]3[C@@H]1CC[C@@H]2O` (stereo partly shown) [ICI 182780], in the test with p42/44^MAPK [2], the “stimulation of p42/44MAPK” value is listed as “stimulated p42/44^MAPK within minutes”. The “effect on p38MAPK activation by anisomycin or IL-1β” value in the test on p38^MAPK [3] is “no significant effects”.

In the case of `COc1cccc(-c2cc(=O)c3ccccc3o2)c1N` [PD98059, 2-(2′-amino-3′-methoxyphenyl) oxanaphthalen-4-one], in the test with LDL receptor expression [1], the “effect on SB202190-induced LDL receptor expression” value is “inhibited”. For the same compound, in the test with p42/44^MAPK [4], the “effect on SB202190-induced p42/44MAPK phosphorylation/activation” value is “inhibited”. Moreover, the “effect on SB202190-induced LDL receptor expression in HeLa cells” value in the test on LDL receptor expression [5] is “blocked SB202190-induced LDL receptor expression”. Further, in the test with other MAPKs, the “effect on activity of other MAPKs” value was “has no effect on activity of other MAPKs”. For the same compound, in the test with p38^MAPK [6], the “effect on p38MAPK activation in response to IL-1β or TNF” value is reported as “failed to block p38^MAPK activation”.

For the compound `CCc1nc(-c2ccc(OC)cc2)[nH]c1-c1ccncc1` [SB202474], the “induction of LDL receptor expression (Northern blotting)” value in the test with LDL receptor expression [1] is recorded as “did not induce LDL receptor expression”.

As for `C[S+]([O-])c1ccc(-c2nc(-c3ccc(F)cc3)c(-c3ccncc3)[nH]2)cc1` (stereo not shown) [SB203580, 4-(4-Fluorophenyl)-2-(4-methylsulfinylphenyl)-5-(4-pyridyl) 1H-imidazole], in the test with LDL receptor expression [1], the “most effective concentration for LDL receptor induction” value was 10 µM and the “induction of LDL receptor expression (Northern blotting)” value is on record as “also induced LDL receptor expression”. In [7], the “inhibition of p38MAPK α- and β-isoforms” value is “selectively inhibit both p38^MAPK α- and β-isoforms”.

Consider `C[C@@H]1C[C@@H]([C@H](O)CC2CC(=O)NC(=O)C2)C(=O)[C@@H](C)C1` [cycloheximide], for which the “effect of inhibition of translation on SB202190-induced LDL receptor expression” value in the test with LDL receptor expression [1] (cycloheximide 1, 2, 5 μg/ml for 1 h, then SB202190 (2.5 μM) 4 h) is recorded as “no effect on LDL receptor expression”.

As to `COc1ccc2c(c1)c(CC(=O)O)c(C)n2C(=O)c1ccc(Cl)cc1` [indomethacin], the “effect on LDL receptor expression” value in the test with LDL receptor expression [1] (10 μM indomethacin) was “did not significantly alter LDL receptor expression”.

Turning to `CN[C@@H]1C[C@H]2O[C@@](C)([C@@H]1OC)n1c3ccccc3c3c4c(c5c6ccccc6n2c5c31)C(=O)NC4` [staurosporine], the “effect on SB202190-induced LDL receptor expression” value with LDL receptor expression [1] is recorded as “completely prevented”. For the same compound, in the test with p42/44^MAPK [4], the “effect on SB202190-induced p42/44MAPK phosphorylation/activation” value is “blocked”. For the same compound, the “effect on SB202190-induced MEK-1/2 activation” value with MEK-1/2 was “blocked”.

Consider calphostin C, for which, in the test with LDL receptor expression [1], the “effect on SB202190-induced LDL receptor expression” value was “has no effect”.
